Assay [1] has as its system zebrafish embryos, transgenic line Tg(kdr:EGFP). The assay can be described thus: Number of ISVs by video subtraction in Tg(kdr:EGFP) zebrafish embryos. The assay is classed as in vivo, zebrafish (D. rerio). As for the experimental part: (§1) Fertilized and normally developed embryos were selected according to Kimmel et al. ([1995]) with a dissection microscope (Olympus SZx7-ILLT) at 1 hpf. Depending on experiment, exposure was started within 2–3 h post-fertilization (16–128 cell stages) or at 24 hpf. Exposure was conducted in rectangular 96-well microplates (Clear Polystyrene, flat bottom, Uniplate, Whatman, GE Healthcare) covered by a lid with a test volume of 400 µL of exposure media. For each replicate one embryo per well and 16 wells per concentration were assessed. Experiments were performed with at least two replicates on independent days and breeding.
(§2) To determine the number of ISVs in the trunk region, high-resolution images of 96 hpf-old zebrafish embryos were recorded using a Leica DM6B-Z microscope (Leica, Wetzlar, Germany) attached to the VAST imaging system, and a camera (Leica DFC9000 sCMOS, objective: HC APO L U-V-I 20x/0.50 WATER UV). A series of 20 images with a frame rate of 20 images per second and a 2 × 2 pixel binning was recorded in autofocus mode for each embryo. For the Tg(kdr:EGFP) strain, one additional fluorescence image was obtained using a fluorescent filter set (emission wavelength 540 nm, excitation filter BP 450–490) and a camera exposure time of 129 ms and a 2. × 2 binning in autofocus mode.
A series of MATLAB scripts (Supplement File ‘Workflow 3.m’ and ‘Workflow 4.m’) was used to convert the image series into a video and to visualize the blood vessel by applying a video subtraction approach (Figure SI1). Briefly, each video frame was subtracted from the average image of the whole image sequence and converted to a binary image by applying a Gaussian blur (σ = 5) and a threshold of 0.025 to obtain optimal contrast in binary images. Subsequently, the sum of all binary images was calculated. Due to movement of the blood cells the subtraction approach removed all parts from the image which were not moving resulting in an image of the blood vessels. This binary image of the blood vessel network in the zebrafish embryo tail was then processed with the FishInspector annotation software (version 1.70). […] The number of ISVs was obtained by application of a KNIME workflow to FishInspector annotation files. Subsequently concentration–response analysis was conducted using a KNIME workflow. The coefficient of variation (CV) of controls was calculated for both the subtraction and the fluorescence-based method by dividing the standard deviation of individual embryos with the control mean: CVControl=SD/Mean.
Concentration–response curves were fitted for lethality, heart rate, morphological features as previously described (Teixidó et al. [2019], [2022]). The assessment of lethality and morphological features was based on the percentage of embryos affected. Therefore, morphological endpoints were dichotomized, i.e. feature metrics were converted to the percentage of embryos deviating from controls. An embryo was considered to deviate when it was outside 1.5-fold of the standard deviation range of the mean of the control group. The control mean was determined by pooling control embryos across all experiments (n = 160) (available at git.ufz.de). For heart rate and angiogenesis (number of ISVs) the analysis was based on normalized values, i.e. for each experiment the values of the treatment were divided by the control value. The experiments were designed to calculate effect concentrations based on modelled curve fits. […]

Assay [2] shares this test system. The assay can be described thus: Number of ISVs by fluorescence imaging in Tg(kdr:EGFP) zebrafish embryos. Format: in vivo, zebrafish (D. rerio). As to conditions: exposure 24–96 hpf, 0.31–10 µM. The protocol: as §1
as §2, with “mode. […]” for “mode.”

`CN(C)c1ccc(C=C2C(=O)Nc3ccccc32)cc1` [SU4312]: the “EC10 (IC10) number of ISVs, subtraction image” value in assay [1] (Tg(kdr:EGFP), exposure 24–96 hpf, 0.31–10 µM) was found to be 0.72 µM. For the same molecule, the EC50 was 2.98 µM in assay [1] (Tg(kdr:EGFP), exposure 24–96 hpf, 0.31–10 µM, read-out: EC50 (IC50) number of ISVs, subtraction image); 2.58 ± 3.12 µM in assay [1] (arterial ISVs only, subtraction method, ± 95% confidence where given, read-out: aISVs EC50); 2.98 µM in assay [1] (subtraction method, ± 95% confidence where given, read-out: all ISVs EC50 (combined assessment)); 0.75 ± 0.17 µM in assay [1] (venous ISVs only, subtraction method, ± 95% confidence where given, read-out: vISVs EC50); above 10 µM in assay [2] (read-out: EC50 number of ISVs, fluorescent image). The “EC10 (IC10) number of ISVs, fluorescent image” value in assay [2] is 1.17 µM.

As usually defined, the EC50 is the concentration giving half of the maximal effect.

Values taken from paper PMC10794345, “Analysis of vascular disruption in zebrafish embryos as an endpoint to predict developmental toxicity” (Archives of Toxicology, 2023).
